{"source": "paper PMC10580381", "about": "(ACS Pharmacology & Translational Science, 2023)", "key": {"H1975 cells": {"test_system": "H1975 cells", "settings": "flunarizine alone 5 or 10 μM, 24 h (Figure 3)", "procedure": "Afterward, ethanol was discarded, and the fixed cells were incubated with RNase I (25 μg/mL) at 37 °C for 30 min. Then, the cells were stained with propidium iodide (50 μg/mL) at room temperature for at least 1 h and analyzed by using a flow cytometer (BD LSRFortessa; BD Biosciences). At least 10,000 events were acquired for each sample. ModFit software (Verity Software House, Topsham, Maine) was used to analyze the cell cycle profile."}, "A549 cells": {"test_system": "A549 cells", "assay": "SRB cell proliferation assay, A549", "settings": "Homo sapiens, A549, read-out: cell viability (%)"}, "H820 cells": {"test_system": "H820 cells", "assay": "cells", "settings": "Homo sapiens, NCI-H820, read-out: cell viability (%)"}, "vimentin": {"test_system": "vimentin", "assay": "Western blot of vimentin in H1975 cells", "assay_type": "cell-based, human", "settings": "concentration-dependent"}, "NSCLC cell lines": {"test_system": "NSCLC cell lines", "assay": "cells", "assay_type": "cell-based", "settings": "Homo sapiens, read-out: effect on cancer cell viability"}, "recombinant human HDAC6": {"target": "T1, recombinant human HDAC6 (Homo sapiens, UniProt Q9UBN7)", "T1 sequence (Q9UBN7 1-1215)": "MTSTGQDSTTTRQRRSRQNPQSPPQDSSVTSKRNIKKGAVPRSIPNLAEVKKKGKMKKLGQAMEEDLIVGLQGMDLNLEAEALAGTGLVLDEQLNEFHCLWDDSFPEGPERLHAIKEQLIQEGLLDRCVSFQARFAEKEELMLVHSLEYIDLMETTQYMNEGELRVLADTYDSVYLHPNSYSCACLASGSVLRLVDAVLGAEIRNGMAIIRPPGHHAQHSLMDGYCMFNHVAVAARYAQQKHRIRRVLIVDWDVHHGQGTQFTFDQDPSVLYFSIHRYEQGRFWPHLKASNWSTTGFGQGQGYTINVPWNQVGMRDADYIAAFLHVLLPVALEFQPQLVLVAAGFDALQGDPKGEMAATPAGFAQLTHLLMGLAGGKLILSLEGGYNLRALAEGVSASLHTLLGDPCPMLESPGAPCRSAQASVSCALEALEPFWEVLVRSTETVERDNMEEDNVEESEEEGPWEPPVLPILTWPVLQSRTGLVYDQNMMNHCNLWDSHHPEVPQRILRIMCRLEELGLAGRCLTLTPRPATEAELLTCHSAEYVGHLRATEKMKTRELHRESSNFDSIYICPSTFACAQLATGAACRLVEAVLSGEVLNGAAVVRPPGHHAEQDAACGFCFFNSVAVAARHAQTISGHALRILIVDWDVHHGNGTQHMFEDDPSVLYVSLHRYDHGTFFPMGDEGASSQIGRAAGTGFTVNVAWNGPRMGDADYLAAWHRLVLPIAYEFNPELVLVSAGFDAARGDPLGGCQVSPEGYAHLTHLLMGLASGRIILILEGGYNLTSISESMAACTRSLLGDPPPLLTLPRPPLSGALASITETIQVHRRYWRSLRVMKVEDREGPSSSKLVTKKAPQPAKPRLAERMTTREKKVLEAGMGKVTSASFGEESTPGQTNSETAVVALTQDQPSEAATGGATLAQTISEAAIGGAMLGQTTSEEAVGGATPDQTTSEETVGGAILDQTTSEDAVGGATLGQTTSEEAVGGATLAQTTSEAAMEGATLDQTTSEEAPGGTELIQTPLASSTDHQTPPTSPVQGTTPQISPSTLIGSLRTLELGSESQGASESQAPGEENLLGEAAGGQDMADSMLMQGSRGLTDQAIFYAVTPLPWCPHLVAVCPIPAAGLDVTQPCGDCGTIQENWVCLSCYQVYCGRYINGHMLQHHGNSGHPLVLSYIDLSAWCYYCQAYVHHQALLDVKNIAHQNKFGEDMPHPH", "assay": "biochemical", "settings": "IC50 HDAC6, recombinant HDAC6, mean ± SD, three independent experiments"}, "recombinant human HDAC3": {"target": "recombinant human HDAC3 (Homo sapiens, UniProt O15379)", "sequence (O15379 whole entry)": "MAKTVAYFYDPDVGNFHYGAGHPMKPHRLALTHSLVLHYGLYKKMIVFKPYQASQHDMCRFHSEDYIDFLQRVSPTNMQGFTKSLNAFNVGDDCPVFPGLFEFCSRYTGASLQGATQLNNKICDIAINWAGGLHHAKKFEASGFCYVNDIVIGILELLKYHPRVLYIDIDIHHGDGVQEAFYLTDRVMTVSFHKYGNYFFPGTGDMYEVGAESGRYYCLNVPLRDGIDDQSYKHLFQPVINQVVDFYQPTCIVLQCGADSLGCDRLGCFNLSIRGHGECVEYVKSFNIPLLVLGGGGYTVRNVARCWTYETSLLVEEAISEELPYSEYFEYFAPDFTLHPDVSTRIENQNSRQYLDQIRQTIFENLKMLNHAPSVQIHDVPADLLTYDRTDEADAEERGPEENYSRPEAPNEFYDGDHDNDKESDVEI", "sequence (Q9Y618 395-489 partner limits assumed)": "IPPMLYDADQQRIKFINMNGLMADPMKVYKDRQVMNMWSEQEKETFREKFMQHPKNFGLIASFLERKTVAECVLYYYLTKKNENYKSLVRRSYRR", "assay": "biochemical"}, "recombinant human HDAC2": {"target": "T2, recombinant human HDAC2 (Homo sapiens, UniProt Q92769)", "T2 construct": "purchased Creative Biomart", "T2 sequence (Q92769 whole entry)": "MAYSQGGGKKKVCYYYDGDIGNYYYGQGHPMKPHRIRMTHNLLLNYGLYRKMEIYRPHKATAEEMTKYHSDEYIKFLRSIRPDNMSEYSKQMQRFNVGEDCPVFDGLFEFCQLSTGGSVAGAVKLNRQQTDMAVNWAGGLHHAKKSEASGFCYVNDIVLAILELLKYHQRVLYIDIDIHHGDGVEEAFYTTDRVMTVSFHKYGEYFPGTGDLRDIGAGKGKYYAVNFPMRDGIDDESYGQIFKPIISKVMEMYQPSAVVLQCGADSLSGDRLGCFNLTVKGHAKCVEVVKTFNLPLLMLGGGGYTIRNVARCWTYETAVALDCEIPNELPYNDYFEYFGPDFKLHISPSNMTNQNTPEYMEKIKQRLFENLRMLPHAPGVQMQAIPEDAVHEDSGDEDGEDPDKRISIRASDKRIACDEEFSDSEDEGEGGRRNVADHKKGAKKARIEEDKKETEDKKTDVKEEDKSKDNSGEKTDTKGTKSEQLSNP", "assay": "Biochemical HDAC activity assay, recombinant HDAC2", "settings": "recombinant HDAC2, mean ± SD, three independent experiments"}, "α-tubulin acetylation": {"test_system": "α-tubulin acetylation", "assay": "Western blot of α-tubulin acetylation in H1975 cells", "assay_type": "cell-based, human", "settings": "flunarizine up to 10 μM, 24 h", "procedure": "After the cancer cells were treated with the designated drug candidates, they were harvested in lysis buffer (0.05 M HEPES, 0.15 M NaCl, 2 mM EDTA, 10% v/v glycerol, and 1% v/v Triton X-100, pH 7.4) supplemented with protease and phosphatase inhibitors. Sodium dodecyl sulfate poly(acrylamide) gel electrophoresis (SDS-PAGE) was used to separate the different proteins in the whole cell lysates, which were then transferred to a poly(vinylidene difluoride) membrane for immunoblot analysis using different specific antibodies (acetylated histone H3, acetylated α-tubulin, histone H3, or GAPDH; Cell Signaling Technology). The bands corresponding to specific proteins of interest were visualized by using the WesternBright ECL HRP substrate (Advansta, San Jose, California). A chemiluminescent Western blot signal was detected and analyzed using a ChemiDoc MP system (Bio-Rad Laboratories, Hercules, California)."}}, "note": "Where “and” joins values, the source holds several entries; their conditions need not be identical. Equal values may be shown once. Entries after “also recorded” stand apart in the source; their conditions may differ.", "data": [{"compound": "Fc1ccc(C(c2ccc(F)cc2)N2CCN(C/C=C/c3ccccc3)CC2)cc1", "note": "[flunarizine]", "values": [{"measurement": "G1 cell cycle arrest", "setting": "H1975 cells", "value": "induce G1 cell cycle arrest"}, {"measurement": "viability at 2.5 µM", "setting": "A549 cells", "value": "101 ± 5", "unit": "%"}, {"measurement": "viability at 5 µM", "setting": "A549 cells", "value": "95 ± 6", "unit": "%"}, {"measurement": "viability at 10 µM", "setting": "A549 cells", "value": "102 ± 8", "unit": "%"}, {"measurement": "viability at 2.5 µM", "setting": "H820 cells", "value": "103 ± 5", "unit": "%"}, {"measurement": "viability at 5 µM", "setting": "H820 cells", "value": "94 ± 7", "unit": "%"}, {"measurement": "vimentin expression", "setting": "vimentin", "value": "downregulate"}, {"measurement": "viability at 20 µM", "setting": "NSCLC cell lines", "value": "≤ 25", "unit": "%"}, {"measurement": "IC50", "setting": "recombinant human HDAC6", "value": "~5600 nM and 5600 nM"}, {"measurement": "IC50", "setting": "recombinant human HDAC3", "value": "305 ± 31", "unit": "nM"}, {"measurement": "IC50", "setting": "recombinant human HDAC2", "value": "360 ± 26", "unit": "nM"}, {"measurement": "effect on acetylation of α-tubulin", "setting": "α-tubulin acetylation", "value": "did not affect acetylation of α-tubulin; also recorded: did not affect the acetylation"}]}]}
